Results on one compound are retold here after patent US12213984B2, “Immunoregulatory agent” (KYUSHU UNIVERSITY, NATIONAL UNIVERSITY CORPORATION, priority 2015, dated 2025).

In assay [1] the test system is T cells (mouse spleen cells). The assay is described as follows: lymphocyte migration assay using transwell (CCL21). It counts as cell-based. Conditions: CCL21 300 ng/mL. As to the method:
The influence of cholesterol 3-sulfate on the migration of T cells was examined. As a control, an experiment using T cells derived from a DOCK2 knockout mouse was also performed. More specifically, first, mouse spleen cells (1×10^7 cells/mL) were cultured for 1 hour at 37° C. in 0.5% BSA-containing RPMI-1640 (transwell medium) in the presence of cholesterol 3-sulfate at a predetermined concentration or in the presence of DMSO alone (control). The concentration of DMSO was adjusted such that the final concentration of DMSO became 0.2% in all samples. Then, a transwell medium containing chemokine CCL21 (300 ng/mL) and cholesterol 3-sulfate at a predetermined concentration was added to a 24-well plate, and then a transwell (with 5 μm pores, Corning) was set in the well so as to load the pre-cultured cells (1×10^6 cells/100 μL). Subsequently, the cells were incubated for 2 hours at 37° C., and the cells that moved to the lower chamber were collected and stained with PE-labeled anti Thy1.2-antibody (“53-2-1” model, BD Pharmingen). By dividing the number of Thy1.2-positive cells (T cells) in the lower chamber by the number of Thy1.2-positive cells (T cells) put into the transwell, the proportion of T cells having moved (migration of T cells (%)) was calculated. More specifically, first, mouse spleen cells (1×10^7 cells/mL) were cultured for 1 hour at 37° C. in 0.5% BSA-containing RPMI-1640 (transwell medium) in the presence of various steroid compounds at the concentration of 12.5 μM or in the presence of DMSO alone (control). The concentration of DMSO was adjusted such that the final concentration of DMSO became 0.2% in all samples. Then, by performing the transwell assay as described above, the effects of various steroid compounds on the migratory responses of T cells to CCL21 (300 ng/mL) were examined by comparison.

The target in assay [2] is T1, binding of the DHR-2 domain of DOCK2 to Rac (Homo sapiens, UniProt Q92608).
T1 construct: 1 μg of a protein composed of the lobe B and the lobe C of the DHR-2 domain of DOCK2; made in house; host or cells: E. coli Arctic express DE3 (DOCK2 fragment); E. coli BL21 DE3 (GST-Rac)
T1 sequence (Q92608 1196-1622): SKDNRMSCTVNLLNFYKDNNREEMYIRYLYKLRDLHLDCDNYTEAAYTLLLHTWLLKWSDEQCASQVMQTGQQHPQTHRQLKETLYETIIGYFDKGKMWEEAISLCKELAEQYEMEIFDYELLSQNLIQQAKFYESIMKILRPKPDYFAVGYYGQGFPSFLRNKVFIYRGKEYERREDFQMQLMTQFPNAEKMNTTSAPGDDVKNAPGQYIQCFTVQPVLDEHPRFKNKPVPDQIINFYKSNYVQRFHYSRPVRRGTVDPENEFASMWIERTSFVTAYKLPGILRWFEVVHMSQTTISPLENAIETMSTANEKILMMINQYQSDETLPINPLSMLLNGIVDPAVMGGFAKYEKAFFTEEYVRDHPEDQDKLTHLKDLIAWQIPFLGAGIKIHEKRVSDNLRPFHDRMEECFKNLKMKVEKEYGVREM
The assay is described as follows: pull-down assay using GST-Rac beads, binding of DOCK2 DHR-2 to Rac. Conditions: 150 μM.

Structures are written as SMILES.

Regarding `CC(C)CCC[C@@H](C)[C@H]1CC[C@H]2[C@@H]3CC=C4C[C@@H](OS(=O)(=O)O)CC[C@]4(C)[C@H]3CC[C@]12C` [C3S, cholesterol 3-sulfate], the “migration of T cells in response to CCL21” value is recorded as “inhibited to the level of T cells derived from DOCK2 knockout mouse” in assay [1] (6.25 μM); “specifically inhibits the migration of T cells” in assay [1] (12.5 μM, Experimental Example 6); “markedly inhibited” in assay [1] (predetermined concentrations, Experimental Example 5). In addition, the “inhibition of binding of DOCK2 DHR-2 to GST-Rac (Western blotting)” value in assay [2] is reported as “specifically inhibits the binding of DHR-2 to Rac”.
